ChEMBL document CHEMBL4725218, “Deep Learning Enhancing Kinome-Wide Polypharmacology Profiling: Model Construction and Experiment Validation” (J Med Chem, 2020)

Legend:
[1] = target: Vascular endothelial growth factor receptor 1 (Homo sapiens) (UniProt P17948); assay: Inhibition of human VEGFR1 assessed as remaining enzyme activity at 1 uM
[2] = target: Homeodomain-interacting protein kinase 3 (Homo sapiens) (UniProt Q9H422); assay: Inhibition of human HIPK3 assessed as remaining enzyme activity at 1 uM
[3] = target: Mitogen-activated protein kinase kinase kinase 20 (Homo sapiens) (UniProt Q9NYL2); assay: Inhibition of human ZAK assessed as remaining enzyme activity at 0.1 uM
Mitogen-activated protein kinase kinase kinase 20 (Homo sapiens), sequence (Q9NYL2 2-800 limits assumed): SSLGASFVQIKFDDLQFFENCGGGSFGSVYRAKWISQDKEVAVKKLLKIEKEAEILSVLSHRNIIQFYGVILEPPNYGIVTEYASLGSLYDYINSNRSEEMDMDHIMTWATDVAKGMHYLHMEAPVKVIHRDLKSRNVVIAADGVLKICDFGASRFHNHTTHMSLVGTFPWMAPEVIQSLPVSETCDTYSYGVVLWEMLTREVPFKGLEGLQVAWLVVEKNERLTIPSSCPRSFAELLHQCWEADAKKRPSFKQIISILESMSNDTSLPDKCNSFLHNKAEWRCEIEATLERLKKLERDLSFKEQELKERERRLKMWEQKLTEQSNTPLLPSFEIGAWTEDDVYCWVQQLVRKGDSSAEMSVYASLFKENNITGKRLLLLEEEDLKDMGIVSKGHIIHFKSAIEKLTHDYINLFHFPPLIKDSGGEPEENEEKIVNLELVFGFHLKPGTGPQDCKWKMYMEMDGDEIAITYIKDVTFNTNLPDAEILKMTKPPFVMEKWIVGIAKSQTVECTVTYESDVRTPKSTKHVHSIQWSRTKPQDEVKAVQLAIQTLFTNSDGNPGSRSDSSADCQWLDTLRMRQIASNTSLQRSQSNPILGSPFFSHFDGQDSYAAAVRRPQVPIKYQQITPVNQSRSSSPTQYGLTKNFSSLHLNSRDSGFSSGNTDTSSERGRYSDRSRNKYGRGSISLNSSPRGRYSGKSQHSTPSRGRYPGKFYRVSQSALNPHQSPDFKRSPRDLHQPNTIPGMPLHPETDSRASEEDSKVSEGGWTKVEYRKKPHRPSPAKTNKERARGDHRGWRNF

[4] = target: Serine/threonine-protein kinase B-raf (Homo sapiens) (UniProt P15056); assay: Inhibition of human B-Raf assessed as remaining enzyme activity at 0.1 uM
Serine/threonine-protein kinase B-raf (Homo sapiens), sequence (P15056 whole entry): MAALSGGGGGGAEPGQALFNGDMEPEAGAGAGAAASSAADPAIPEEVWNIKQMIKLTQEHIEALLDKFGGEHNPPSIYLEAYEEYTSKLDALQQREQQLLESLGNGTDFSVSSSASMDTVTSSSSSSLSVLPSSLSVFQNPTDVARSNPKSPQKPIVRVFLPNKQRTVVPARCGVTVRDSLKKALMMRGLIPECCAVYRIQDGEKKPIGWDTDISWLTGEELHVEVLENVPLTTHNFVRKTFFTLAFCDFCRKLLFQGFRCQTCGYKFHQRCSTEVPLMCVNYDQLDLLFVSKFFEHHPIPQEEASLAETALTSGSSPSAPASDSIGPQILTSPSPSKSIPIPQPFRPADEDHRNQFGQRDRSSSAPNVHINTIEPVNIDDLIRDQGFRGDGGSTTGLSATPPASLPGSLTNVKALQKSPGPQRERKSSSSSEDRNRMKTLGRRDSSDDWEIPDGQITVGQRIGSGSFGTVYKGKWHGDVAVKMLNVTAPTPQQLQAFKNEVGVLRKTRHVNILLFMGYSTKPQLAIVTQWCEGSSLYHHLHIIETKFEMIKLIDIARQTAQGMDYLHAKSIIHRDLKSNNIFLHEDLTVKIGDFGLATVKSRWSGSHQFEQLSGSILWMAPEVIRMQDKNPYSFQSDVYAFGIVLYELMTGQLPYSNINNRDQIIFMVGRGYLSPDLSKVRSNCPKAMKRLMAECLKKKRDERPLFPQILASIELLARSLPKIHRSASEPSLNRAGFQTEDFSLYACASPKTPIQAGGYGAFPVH

[5] = target: NT-3 growth factor receptor (Homo sapiens) (UniProt Q16288); assay: Inhibition of human TRKC assessed as remaining enzyme activity at 0.01 uM
NT-3 growth factor receptor (Homo sapiens), sequence (Q16288 32-839 limits assumed): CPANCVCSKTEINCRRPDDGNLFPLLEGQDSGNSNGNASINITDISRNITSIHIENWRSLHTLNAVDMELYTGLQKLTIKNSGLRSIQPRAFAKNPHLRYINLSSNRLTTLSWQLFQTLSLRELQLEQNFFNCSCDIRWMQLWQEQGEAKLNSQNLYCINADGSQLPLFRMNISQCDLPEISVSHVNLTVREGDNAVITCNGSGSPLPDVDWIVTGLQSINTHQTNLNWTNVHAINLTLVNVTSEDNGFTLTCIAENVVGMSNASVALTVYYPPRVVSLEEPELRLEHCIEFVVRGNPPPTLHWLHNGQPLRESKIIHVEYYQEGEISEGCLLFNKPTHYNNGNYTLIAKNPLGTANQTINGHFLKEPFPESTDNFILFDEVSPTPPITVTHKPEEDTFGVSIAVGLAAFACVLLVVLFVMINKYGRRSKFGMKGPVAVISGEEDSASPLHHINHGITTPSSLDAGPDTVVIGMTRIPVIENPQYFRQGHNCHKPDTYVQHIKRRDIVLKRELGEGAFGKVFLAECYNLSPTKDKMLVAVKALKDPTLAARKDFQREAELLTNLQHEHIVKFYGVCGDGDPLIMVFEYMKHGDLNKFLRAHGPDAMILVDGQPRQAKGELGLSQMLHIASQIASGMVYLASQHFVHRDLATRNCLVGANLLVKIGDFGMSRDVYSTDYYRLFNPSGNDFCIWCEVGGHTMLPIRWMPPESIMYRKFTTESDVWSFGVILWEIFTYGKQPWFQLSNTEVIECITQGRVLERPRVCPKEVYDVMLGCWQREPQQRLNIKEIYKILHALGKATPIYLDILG

[6] = target: T1, Ephrin type-A receptor 8 (Homo sapiens) (UniProt P29322); assay: Inhibition of human EphA8 assessed as remaining enzyme activity at 0.01 uM
T1 sequence (whole entry): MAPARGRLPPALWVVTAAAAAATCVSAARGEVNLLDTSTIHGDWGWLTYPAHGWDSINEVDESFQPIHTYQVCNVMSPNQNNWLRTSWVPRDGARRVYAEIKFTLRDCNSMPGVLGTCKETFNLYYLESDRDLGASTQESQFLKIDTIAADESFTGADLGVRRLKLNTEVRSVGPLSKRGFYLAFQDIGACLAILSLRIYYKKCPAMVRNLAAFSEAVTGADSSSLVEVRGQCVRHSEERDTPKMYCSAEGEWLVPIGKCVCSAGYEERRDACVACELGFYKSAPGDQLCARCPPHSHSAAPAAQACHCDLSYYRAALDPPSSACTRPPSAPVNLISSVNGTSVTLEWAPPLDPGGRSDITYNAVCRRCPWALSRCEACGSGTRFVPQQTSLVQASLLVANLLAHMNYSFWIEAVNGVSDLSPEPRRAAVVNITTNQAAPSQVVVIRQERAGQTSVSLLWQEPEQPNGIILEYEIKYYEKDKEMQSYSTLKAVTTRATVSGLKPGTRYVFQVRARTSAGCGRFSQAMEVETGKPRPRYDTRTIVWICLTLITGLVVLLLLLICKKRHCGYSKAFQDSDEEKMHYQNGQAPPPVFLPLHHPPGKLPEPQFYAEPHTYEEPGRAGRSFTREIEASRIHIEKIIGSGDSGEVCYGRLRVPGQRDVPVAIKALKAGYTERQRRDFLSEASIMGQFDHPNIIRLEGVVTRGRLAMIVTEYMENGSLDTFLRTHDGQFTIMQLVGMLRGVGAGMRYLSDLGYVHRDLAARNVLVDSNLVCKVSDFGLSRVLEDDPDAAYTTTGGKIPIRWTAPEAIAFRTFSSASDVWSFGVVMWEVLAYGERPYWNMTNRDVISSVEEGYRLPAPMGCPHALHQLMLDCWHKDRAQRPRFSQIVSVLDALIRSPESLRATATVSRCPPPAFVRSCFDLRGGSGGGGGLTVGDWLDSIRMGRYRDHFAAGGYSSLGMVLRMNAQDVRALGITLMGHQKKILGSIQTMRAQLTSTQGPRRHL

[7] = target: Serine/threonine-protein kinase 10 (Homo sapiens) (UniProt O94804); assay: Inhibition of human LOK assessed as remaining enzyme activity at 1 uM
[8] = target: Tyrosine-protein kinase Blk (Mus musculus) (UniProt P16277); assay: Inhibition of mouse BLK assessed as remaining enzyme activity at 0.01 uM
[9] = target: MAP kinase-interacting serine/threonine-protein kinase 2 (Homo sapiens) (UniProt Q9HBH9); assay: Inhibition of human MNK2 assessed as remaining enzyme activity at 1 uM
[10] = target: RAF proto-oncogene serine/threonine-protein kinase (Homo sapiens) (UniProt P04049); assay: Inhibition of human RAF1 assessed as remaining enzyme activity at 0.1 uM
RAF proto-oncogene serine/threonine-protein kinase (Homo sapiens), sequence (P04049 whole entry): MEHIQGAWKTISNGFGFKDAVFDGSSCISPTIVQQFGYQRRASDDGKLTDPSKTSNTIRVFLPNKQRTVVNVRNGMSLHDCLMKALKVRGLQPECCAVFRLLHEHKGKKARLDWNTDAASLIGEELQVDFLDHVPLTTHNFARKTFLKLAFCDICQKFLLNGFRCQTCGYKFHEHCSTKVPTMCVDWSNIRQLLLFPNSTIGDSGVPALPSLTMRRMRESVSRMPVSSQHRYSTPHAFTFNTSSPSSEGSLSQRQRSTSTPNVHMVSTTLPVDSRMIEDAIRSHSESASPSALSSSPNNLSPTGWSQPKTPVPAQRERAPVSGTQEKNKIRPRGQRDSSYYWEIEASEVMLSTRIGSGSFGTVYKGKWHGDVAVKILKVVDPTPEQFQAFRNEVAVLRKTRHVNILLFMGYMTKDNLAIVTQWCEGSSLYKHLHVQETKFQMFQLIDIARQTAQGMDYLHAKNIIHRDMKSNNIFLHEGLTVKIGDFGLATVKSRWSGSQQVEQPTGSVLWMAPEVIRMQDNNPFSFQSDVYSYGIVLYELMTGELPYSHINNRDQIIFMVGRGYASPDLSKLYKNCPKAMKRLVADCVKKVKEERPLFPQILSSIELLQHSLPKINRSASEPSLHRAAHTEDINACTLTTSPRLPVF

[11] = target: Vascular endothelial growth factor receptor 3 (Homo sapiens) (UniProt P35916); assay: Inhibition of human VEGFR3 assessed as remaining enzyme activity at 0.01 uM
[12] = target: Tyrosine-protein kinase Lyn (Homo sapiens) (UniProt P07948); assay: Inhibition of human LYN assessed as remaining enzyme activity at 0.01 uM
[13] = target: NT-3 growth factor receptor (Homo sapiens) (UniProt Q16288); assay: Inhibition of human TRKC assessed as remaining enzyme activity at 0.1 uM
[14] = target: Mitogen-activated protein kinase kinase kinase 20 (Homo sapiens) (UniProt Q9NYL2); assay: Inhibition of human ZAK assessed as remaining enzyme activity at 1 uM
[15] = target: Serine/threonine-protein kinase B-raf (Homo sapiens) (UniProt P15056); assay: Inhibition of human B-Raf assessed as remaining enzyme activity at 0.01 uM
[16] = target: Tyrosine-protein kinase FRK (Homo sapiens) (UniProt P42685); assay: Inhibition of human PTK5 assessed as remaining enzyme activity at 0.01 uM
Tyrosine-protein kinase FRK (Homo sapiens), sequence (P42685 whole entry): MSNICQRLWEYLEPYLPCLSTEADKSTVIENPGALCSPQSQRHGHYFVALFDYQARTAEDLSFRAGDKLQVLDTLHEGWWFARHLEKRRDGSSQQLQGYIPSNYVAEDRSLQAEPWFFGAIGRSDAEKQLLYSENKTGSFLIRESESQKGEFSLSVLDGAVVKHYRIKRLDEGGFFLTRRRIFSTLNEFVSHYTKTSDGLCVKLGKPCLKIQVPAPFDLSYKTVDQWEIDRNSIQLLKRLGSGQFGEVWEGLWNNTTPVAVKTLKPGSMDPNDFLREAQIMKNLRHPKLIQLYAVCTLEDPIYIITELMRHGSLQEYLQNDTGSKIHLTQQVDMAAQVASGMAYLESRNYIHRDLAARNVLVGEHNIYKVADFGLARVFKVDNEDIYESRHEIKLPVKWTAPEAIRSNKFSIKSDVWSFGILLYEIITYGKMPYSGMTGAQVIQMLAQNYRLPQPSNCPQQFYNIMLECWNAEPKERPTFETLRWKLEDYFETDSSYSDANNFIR

[17] = target: RAF proto-oncogene serine/threonine-protein kinase (Homo sapiens) (UniProt P04049); assay: Inhibition of human C-Raf assessed as remaining enzyme activity at 1 uM
[18] = target: Mast/stem cell growth factor receptor Kit (Homo sapiens) (UniProt P10721); assay: Inhibition of human c-Kit assessed as remaining enzyme activity at 1 uM
[19] = target: RAF proto-oncogene serine/threonine-protein kinase (Homo sapiens) (UniProt P04049); assay: Inhibition of human RAF1 assessed as remaining enzyme activity at 1 uM
[20] = species: Homo sapiens; assay: Inhibition of human p70S6K assessed as remaining enzyme activity at 1 uM
[21] = target: RAF proto-oncogene serine/threonine-protein kinase (Homo sapiens) (UniProt P04049); assay: Inhibition of human RAF1 assessed as remaining enzyme activity at 0.01 uM
[22] = target: T1, Ephrin type-A receptor 8 (Homo sapiens); assay: Inhibition of human EphA8 assessed as remaining enzyme activity at 1 uM
[23] = target: RAF proto-oncogene serine/threonine-protein kinase (Homo sapiens) (UniProt P04049); assay: Inhibition of human C-Raf assessed as remaining enzyme activity at 0.01 uM
[24] = target: Tyrosine-protein kinase ABL2 (Mus musculus) (UniProt Q4JIM5); assay: Inhibition of mouse ARG assessed as remaining enzyme activity at 0.1 uM
[25] = target: Ephrin type-A receptor 2 (Homo sapiens) (UniProt P29317); assay: Inhibition of human EphA2 assessed as remaining enzyme activity at 0.1 uM
[26] = target: Macrophage colony-stimulating factor 1 receptor (Homo sapiens) (UniProt P07333); assay: Inhibition of human FMS assessed as remaining enzyme activity at 0.01 uM

Vascular endothelial growth factor receptor 1 (Homo sapiens), sequence (P17948 whole entry): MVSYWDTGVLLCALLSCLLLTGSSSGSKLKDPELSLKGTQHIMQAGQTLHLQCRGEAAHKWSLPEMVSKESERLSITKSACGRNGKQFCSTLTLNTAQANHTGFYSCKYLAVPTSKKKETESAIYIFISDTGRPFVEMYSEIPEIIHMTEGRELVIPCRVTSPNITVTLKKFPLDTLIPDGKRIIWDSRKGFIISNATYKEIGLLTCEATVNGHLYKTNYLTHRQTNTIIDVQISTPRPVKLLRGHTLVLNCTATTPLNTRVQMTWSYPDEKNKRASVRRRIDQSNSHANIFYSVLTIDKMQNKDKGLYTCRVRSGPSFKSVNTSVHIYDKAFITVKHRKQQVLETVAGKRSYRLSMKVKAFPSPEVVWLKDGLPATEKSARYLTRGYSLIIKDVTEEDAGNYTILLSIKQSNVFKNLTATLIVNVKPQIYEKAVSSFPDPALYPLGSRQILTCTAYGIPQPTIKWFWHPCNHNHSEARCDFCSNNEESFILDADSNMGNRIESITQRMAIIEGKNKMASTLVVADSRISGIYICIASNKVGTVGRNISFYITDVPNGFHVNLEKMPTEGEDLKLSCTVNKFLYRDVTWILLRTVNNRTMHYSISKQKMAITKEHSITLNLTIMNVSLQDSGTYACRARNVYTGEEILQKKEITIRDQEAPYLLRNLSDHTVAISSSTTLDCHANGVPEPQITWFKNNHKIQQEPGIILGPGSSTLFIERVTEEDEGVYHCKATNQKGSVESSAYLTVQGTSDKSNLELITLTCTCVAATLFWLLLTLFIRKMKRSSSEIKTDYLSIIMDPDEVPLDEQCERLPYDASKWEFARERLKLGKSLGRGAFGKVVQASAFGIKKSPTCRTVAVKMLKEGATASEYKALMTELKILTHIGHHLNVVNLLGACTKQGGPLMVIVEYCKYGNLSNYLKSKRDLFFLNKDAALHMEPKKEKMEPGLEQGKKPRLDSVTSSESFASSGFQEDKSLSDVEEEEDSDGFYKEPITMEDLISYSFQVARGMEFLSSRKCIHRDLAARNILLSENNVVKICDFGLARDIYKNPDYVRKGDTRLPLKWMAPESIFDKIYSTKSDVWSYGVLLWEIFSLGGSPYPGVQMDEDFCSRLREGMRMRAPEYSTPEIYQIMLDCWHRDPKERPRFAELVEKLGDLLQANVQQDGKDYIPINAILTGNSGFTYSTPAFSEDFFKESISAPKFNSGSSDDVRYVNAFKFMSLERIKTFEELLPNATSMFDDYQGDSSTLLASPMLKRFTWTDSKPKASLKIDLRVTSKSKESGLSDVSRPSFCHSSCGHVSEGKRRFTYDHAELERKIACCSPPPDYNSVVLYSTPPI

CNC(=O)c1cc(Oc2ccc(NC(=O)Nc3ccc(Cl)c(C(F)(F)F)c3)c(F)c2)ccn1
Activity [1]: 3%
Activity [2]: 12%
Activity [3]: 2%
Activity [4]: 66%
Activity [5]: 54%
Activity [6]: 85%
Activity [7]: 34%
Activity [8]: 52%
Activity [9]: 34%
Activity [10]: 57%
Activity [11]: 38%
Activity [12]: 32%
Activity [13]: 17%
Activity [14]: -1%
Activity [15]: 101%
Activity [16]: 64%
Activity [17]: 8%
Activity [18]: -1%
Activity [19]: 8%
Activity [20]: 36%
Activity [21]: 93%
Activity [22]: 5%
Activity [23]: 93%
Activity [24]: 29%
Activity [25]: 58%
Activity [26]: 73%
